Test results taken from PMC6770006, “Novel Heat Shock Protein 90 Inhibitors Suppress P-Glycoprotein Activity and Overcome Multidrug Resistance in Cancer Cells” (International Journal of Molecular Sciences, 2019).
Entries after “also recorded” stand apart in the source; their conditions may differ.

What was measured:
[1] = test system: DLD1-TxR cells; experiment: Combined treatment of compound 5 with PTX, MTT, median effect analysis; format: cell-based, human; conditions: PTX resistance
Protocol: (§1) The combined effects of compound 5 with DOX as well as with PTX were studied in NCI-H460/R and DLD1-TxR cells, respectively, by MTT assay. In simultaneous treatments that lasted 72 h in NCI-H460/R cells, three concentrations of compound 5 (2.5, 5, and 10 µM) were combined with increasing concentrations of DOX (250, 500 and 1000 nM), while in DLD1-TxR cells different concentrations of compound 5 (1, 2.5, and 5 µM) were combined with increasing concentrations of PTX (100, 250 and 500 nM). The nature of the interaction between Hsp90 inhibitors and DOX/PTX was analyzed with CalcuSyn software v1.1 (Biosoft, Cambridge, UK) that uses the Combination Index method based on the multiple drug effect equation [54]. Three data points were used for each single drug in each experiment. The non-constant ratio combination was chosen to assess the effect of both drugs in combination. The results are presented in a fraction-affected CI graph. Values of CI < 1 point to a pronounced additive effect or synergism (the smaller value, the greater the degree of synergy). A value of CI = 1 indicates an additive effect, while values of CI > 1 point to an antagonistic effect.

[2] = test system: NCI-H460/R cells; experiment: Combined treatment of compound 5 with DOX, MTT, median effect analysis; format: cell-based, human; conditions: for Relative Reversal: DOX resistance; for IC50: Homo sapiens, NCI-H460, 72 h
Protocol: as §1

[3] = target: T1, P-gp (Homo sapiens, UniProt P08183); experiment: Rhodamine 123 accumulation assay (P-gp activity, flow cytometry); format: cell-based; design: P-gp overexpressing multidrug resistant DLD1-TxR cells were selected by continuous exposure to stepwise increasing concentrations of paclitaxel from DLD1 cells; endogenous in cells; host or cells: NCI-H460/R and DLD1-TxR (drug-selected MDR human cancer cells); conditions: MDR NCI-H460/R and DLD1-TxR cells, 30 min, one concentration per compound (100 nM-10 µM), Figure 3a
Protocol: To study the effect of Hsp90 inhibitors on P-gp activity in MDR cancer cells, intracellular accumulation of the P-gp substrate rhodamine 123 (Rho 123) was analyzed by flow cytometry after 30 min treatment (Figure 3a). A well-known inhibitor of P-gp activity, tariquidar (TQ), was included as a positive control.
The accumulation of Rho 123, a fluorescent P-gp substrate, was measured by flow cytometry. The intensity of the fluorescence is proportional to Rho 123 accumulation in the cell. All cell lines were seeded in adherent 6-well plates and grown overnight. DLD1-TxR and NCI-H460/R cells were treated for 30 min with the following concentrations of Hsp90 inhibitors: 500 nM compound 3, 1 µM compound 4, 10 µM compound 5, 500 nM compound 6, 500 nM compound 7, 1 µM compound 8, 500 nM compound 9, 1 µM compound 10, 1 µM compound 13, 10 µM compound 14, 100 nM compound 15. TQ (10 nM) was used as a positive control for Rho 123 accumulation. Rho 123 (5 μM) was simultaneously added with the investigated compounds and the cells were incubated at 37 °C in 5% CO2 for 30 min. The cells were then trypsinized, pelleted by centrifugation, washed with PBS and placed in ice-cold PBS. The samples were kept on ice in the dark until the analysis on CyFlow Space Partec flow cytometer (Sysmex Partec GmbH, Görlitz, Germany). The fluorescence of Rho 123 was detected on fluorescence channel 1 (FL1-H) at 530 nm. A minimum of 10,000 events were collected for each sample and the obtained results were analyzed using Summit software.

[4] = target: T1, P-gp; experiment: P-gp ATPase activity assay (Pgp-Glo); format: biochemical; design: purchased Promega; conditions: 5: 5, 10, 20 µM; 7 and 9: 100, 250, 500 nM; Figure 5a
Protocol: P-gp relies on the ATP hydrolysis energy to extrude the substrate outside the cell and compounds that interact with P-gp can stimulate or inhibit its ATPase activity. Compounds that are P-gp substrates usually stimulate its ATPase activity. Pgp-Glo™ assay system (Promega, Madison, WI, USA) detects the compound’s effect on recombinant human P-gp in a cell membrane fraction. P-gp ATPase activity was measured using luminescent Pgp-Glo™ assay kit according to manufacturer’s instructions. Briefly, ATP was first incubated with P-gp; then the P-gp ATPase reaction was stopped, and the remaining unmetabolized ATP was detected as a luciferase-generated luminescent signal. Pgp-dependent decreases in luminescence reflect ATP consumption by P-gp; thus, the greater the decrease in signal, the higher the P-gp activity. […] Verapamil and sodium orthovanadate, supplied in the assay kit were used as positive controls. Verapamil is a P-gp substrate and competitive inhibitor, and sodium orthovanadate is a noncompetitive inhibitor of P-gp ATPase activity. The luminescence of samples treated with increasing concentrations of compound 5 (5 µM, 10 µM and 20 µM), compound 7 (100 nM, 250 nM and 500 nM) and compound 9 (100 nM, 250 nM and 500 nM), was measured with a luminometer microplate reader (CHAMELEON™V, Hidex, Turku, Finland).

T1 sequence (P08183 whole entry): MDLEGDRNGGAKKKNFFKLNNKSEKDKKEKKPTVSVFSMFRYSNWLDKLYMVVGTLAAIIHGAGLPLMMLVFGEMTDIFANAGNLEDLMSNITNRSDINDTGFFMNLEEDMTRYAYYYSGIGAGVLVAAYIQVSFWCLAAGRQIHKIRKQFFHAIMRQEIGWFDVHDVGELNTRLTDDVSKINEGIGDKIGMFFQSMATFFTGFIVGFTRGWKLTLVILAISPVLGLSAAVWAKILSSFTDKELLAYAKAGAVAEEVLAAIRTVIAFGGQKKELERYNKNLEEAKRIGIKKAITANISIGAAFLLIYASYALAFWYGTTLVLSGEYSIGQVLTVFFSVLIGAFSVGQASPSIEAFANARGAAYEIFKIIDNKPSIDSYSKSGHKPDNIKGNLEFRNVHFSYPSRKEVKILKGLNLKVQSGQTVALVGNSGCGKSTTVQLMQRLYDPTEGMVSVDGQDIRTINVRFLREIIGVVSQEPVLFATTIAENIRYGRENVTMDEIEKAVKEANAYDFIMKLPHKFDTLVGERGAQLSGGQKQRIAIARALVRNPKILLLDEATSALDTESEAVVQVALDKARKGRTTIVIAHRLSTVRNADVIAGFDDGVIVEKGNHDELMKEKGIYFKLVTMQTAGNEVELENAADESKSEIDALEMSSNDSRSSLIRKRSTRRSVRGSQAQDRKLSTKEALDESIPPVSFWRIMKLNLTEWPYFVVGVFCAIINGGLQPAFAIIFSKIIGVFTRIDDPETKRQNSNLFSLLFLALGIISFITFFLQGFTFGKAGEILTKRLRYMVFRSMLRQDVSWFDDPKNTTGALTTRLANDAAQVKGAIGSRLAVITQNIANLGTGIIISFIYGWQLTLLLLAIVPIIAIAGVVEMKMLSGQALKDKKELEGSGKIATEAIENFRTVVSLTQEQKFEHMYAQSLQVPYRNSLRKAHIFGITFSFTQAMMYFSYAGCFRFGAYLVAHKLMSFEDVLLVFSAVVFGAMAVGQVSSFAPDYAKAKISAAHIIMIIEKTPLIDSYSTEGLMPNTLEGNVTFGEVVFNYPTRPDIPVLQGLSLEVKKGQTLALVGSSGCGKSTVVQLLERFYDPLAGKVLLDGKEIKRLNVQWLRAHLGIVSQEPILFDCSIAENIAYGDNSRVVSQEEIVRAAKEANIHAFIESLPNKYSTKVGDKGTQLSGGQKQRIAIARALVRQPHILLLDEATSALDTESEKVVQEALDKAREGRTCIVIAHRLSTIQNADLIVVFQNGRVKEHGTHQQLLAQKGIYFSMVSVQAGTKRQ

Structure (SMILES) | Relative Reversal ([1]; 1 µM compound 5) | Relative Reversal ([1]; 2.5 µM compound 5) | Relative Reversal ([1]; 5 µM compound 5) | Relative Reversal ([2]; 2.5 µM compound 5) | Relative Reversal ([2]; 5 µM compound 5) | Relative Reversal ([2]; 10 µM compound 5) | IC50 ([2]; DOX + 2.5 µM compound 5, 72 h) [µM] | IC50 ([2]; DOX + 5 µM compound 5, 72 h) [µM] | IC50 ([2]; DOX + 10 µM compound 5, 72 h) [µM] | P-gp activity / Rho 123 accumulation [3] | Effect on P-gp ATPase activity [4]
O=C1c2ccccc2C(=O)c2c(-c3ccccc3O)noc21 [Compound 5] | 1.80 | 2.60 | 5.27 | 1.31 | 2.62 | 5.28 | 1.73 ± 0.0309 | 0.864 ± 0.0256 | 0.429 ± 0.0133 | significant beneficial effect on P-gp inhibition; also recorded: most prominent effect in both MDR cell lines | smallest effect on ATPase activity
O=C1c2ccccc2C(=O)c2c(-c3ccncc3)noc21 [Compound 7] |  |  |  |  |  |  |  |  |  | most prominent effect in both MDR cell lines | potent dose-dependent inhibition
O=C1c2ccccc2C(=O)c2c(-c3cccnc3)noc21 [Compound 9] |  |  |  |  |  |  |  |  |  | most prominent effect in both MDR cell lines | significant inhibition
